In one test the target is T1, JAK3 (Homo sapiens, UniProt P52333).
T1 sequence (P52333 1-1124): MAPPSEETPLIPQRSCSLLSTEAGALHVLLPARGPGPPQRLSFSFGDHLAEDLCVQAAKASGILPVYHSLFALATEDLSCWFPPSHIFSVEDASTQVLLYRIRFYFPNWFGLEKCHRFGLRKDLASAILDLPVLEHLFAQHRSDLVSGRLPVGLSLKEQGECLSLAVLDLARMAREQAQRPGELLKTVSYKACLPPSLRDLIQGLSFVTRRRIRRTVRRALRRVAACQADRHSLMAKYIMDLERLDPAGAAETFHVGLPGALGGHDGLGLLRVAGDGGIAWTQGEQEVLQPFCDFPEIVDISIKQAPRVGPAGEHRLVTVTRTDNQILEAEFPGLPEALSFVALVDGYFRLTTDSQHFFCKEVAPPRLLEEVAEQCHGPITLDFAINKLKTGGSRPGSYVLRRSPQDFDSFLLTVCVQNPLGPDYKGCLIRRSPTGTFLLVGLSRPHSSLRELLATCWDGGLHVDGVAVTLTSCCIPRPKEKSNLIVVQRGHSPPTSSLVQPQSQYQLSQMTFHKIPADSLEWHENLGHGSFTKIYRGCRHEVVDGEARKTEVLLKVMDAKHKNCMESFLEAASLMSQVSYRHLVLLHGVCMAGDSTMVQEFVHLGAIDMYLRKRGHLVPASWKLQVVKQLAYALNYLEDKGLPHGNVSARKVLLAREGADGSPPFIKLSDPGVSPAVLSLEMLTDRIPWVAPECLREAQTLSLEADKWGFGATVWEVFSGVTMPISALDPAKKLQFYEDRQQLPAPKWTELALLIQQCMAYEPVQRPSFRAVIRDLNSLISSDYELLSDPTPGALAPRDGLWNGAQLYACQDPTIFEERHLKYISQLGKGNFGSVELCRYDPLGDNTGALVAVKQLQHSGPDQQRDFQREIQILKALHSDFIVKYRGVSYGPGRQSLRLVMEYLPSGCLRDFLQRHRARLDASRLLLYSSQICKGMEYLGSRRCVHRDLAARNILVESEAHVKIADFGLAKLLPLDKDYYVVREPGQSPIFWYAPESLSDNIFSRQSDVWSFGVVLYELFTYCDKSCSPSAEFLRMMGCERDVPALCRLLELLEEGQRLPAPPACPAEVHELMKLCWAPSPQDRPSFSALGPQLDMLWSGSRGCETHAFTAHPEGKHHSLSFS
Kind of test: JAK3 Inhibition Assay. It is filed as biochemical. As to conditions: 1 nM JAK3, 1 μM poly(Glu)4Tyr, 5 μM ATP, 25° C., 33P incorporation.

For the next test, the target named is JAK-2 enzyme (Homo sapiens, UniProt O60674). Description: JAK2 Inhibition Assay.
Chain of JAK-2 enzyme (O60674 whole entry): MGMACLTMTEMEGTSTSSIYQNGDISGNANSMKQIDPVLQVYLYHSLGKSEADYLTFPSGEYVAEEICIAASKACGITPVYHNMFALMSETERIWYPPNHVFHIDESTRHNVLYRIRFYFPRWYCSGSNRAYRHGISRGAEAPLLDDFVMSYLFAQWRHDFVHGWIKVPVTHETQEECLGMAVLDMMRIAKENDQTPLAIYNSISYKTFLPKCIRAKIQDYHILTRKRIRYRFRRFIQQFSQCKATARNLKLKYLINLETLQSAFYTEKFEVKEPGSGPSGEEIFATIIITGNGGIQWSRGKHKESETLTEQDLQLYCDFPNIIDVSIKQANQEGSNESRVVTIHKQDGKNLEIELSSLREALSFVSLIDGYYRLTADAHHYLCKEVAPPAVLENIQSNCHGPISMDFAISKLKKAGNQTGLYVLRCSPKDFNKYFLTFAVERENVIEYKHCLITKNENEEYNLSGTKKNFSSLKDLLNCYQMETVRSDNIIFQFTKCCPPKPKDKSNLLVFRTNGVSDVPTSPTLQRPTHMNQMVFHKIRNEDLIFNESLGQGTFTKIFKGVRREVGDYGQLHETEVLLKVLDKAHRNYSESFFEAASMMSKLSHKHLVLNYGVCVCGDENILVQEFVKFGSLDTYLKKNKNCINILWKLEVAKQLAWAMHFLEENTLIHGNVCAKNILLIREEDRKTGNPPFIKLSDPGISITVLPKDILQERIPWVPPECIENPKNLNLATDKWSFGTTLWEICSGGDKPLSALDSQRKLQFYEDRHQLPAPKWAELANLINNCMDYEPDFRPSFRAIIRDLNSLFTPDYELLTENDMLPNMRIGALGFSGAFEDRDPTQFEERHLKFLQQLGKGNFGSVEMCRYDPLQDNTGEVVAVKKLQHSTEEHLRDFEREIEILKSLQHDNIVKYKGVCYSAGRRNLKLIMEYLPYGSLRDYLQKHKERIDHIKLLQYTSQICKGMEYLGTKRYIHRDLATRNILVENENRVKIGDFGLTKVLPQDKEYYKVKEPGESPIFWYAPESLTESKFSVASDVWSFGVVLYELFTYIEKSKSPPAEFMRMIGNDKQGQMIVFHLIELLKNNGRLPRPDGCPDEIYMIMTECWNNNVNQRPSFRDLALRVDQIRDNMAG

Experimental for JAK-2 enzyme: Reactions were carried out in a kinase buffer containing 100 mM HEPES (pH 7.4), 1 mM DTT, 10 mM MgCl2, 25 mM NaCl, and 0.01% BSA. Substrate concentrations in the assay were 5 μM ATP (200 uCi/μmole ATP) and 1 μM poly(Glu)4Tyr. Reactions were carried out at 25° C. and 1 nM JAK3.
To each well of a 96 well polycarbonate plate was added 1.5 μl of a candidate JAK3 inhibitor along with 50 μl of kinase buffer containing 2 μM poly(Glu)4Tyr and 10 μM ATP. This was then mixed and 50 μl of kinase buffer containing 2 nM JAK3 enzyme was added to start the reaction. After 20 minutes at room temperature (25° C.), the reaction was stopped with 50 μl of 20% trichloroacetic acid (TCA) that also contained 0.4 mM ATP. The entire contents of each well were then transferred to a 96 well glass fiber filter plate using a TomTek Cell Harvester. After washing, 60 μl of scintillation fluid was added and ^33P incorporation detected on a Perkin Elmer TopCount.

By Ki is commonly meant a dissociation constant, usually derived from enzyme kinetics or from competition with a known ligand. As for `COc1ccccc1CNc1cc(-c2c(N)nn3cccnc23)ncn1` [Compound 5], the Ki at JAK3 is 10 to 100 nM; on JAK-2 enzyme it was less than 10 nM.
On the same counts, the results for `Cc1ccccc1CNc1cc(-c2c(N)nn3cccnc23)ncn1` [Compound 11] are 10 to 100 nM and less than 10 nM.
In the same order, the values of `Nc1nn2cccnc2c1-c1cc(NCc2ccccc2OC(F)(F)F)ncn1` [Compound 14] are 10 to 100 nM and less than 10 nM.
In the same order, the values of `C[C@@H](c1ccccc1)N(C)c1cc(-c2c(N)nn3cccnc23)ncn1` [Compound 19] are 100 to 500 nM and 10 to 100 nM.
Turning to `C[C@H](c1ccccc1)N(C)c1cc(-c2c(N)nn3cccnc23)ncn1` [Compound 20], the Ki fell in the range of 100 to 500 nM at JAK3 and 10 to 100 nM on JAK-2 enzyme.
On the same counts, the results for `Nc1nn2cccnc2c1-c1cc(NCc2ccco2)ncn1` [Compound 24] are 10 to 100 nM and 10 to 100 nM.
In the same order, the values of `Cc1ccc(CNc2cc(-c3c(N)nn4cccnc34)ncn2)o1` [Compound 26] are 100 to 500 nM and 10 to 100 nM.
On the same counts, the results for `Nc1nn2cccnc2c1-c1cc(N2Cc3ccccc3C2)ncn1` [Compound 27] are 100 to 500 nM and 10 to 100 nM.
In the case of `Nc1nn2cccnc2c1-c1cc(NCc2csc3ccccc23)ncn1` [Compound 31], the figures for the Ki at JAK3 and on JAK-2 enzyme were 100 to 500 nM and 10 to 100 nM, respectively.
On the same counts, the results for `CN(Cc1cccnc1)c1cc(-c2c(N)nn3cccnc23)ncn1` [Compound 33] are 10 to 100 nM and 10 to 100 nM.
On the same counts, the results for `COc1cc2c(cc1OC)CN(c1cc(-c3c(N)nn4cccnc34)ncn1)CC2` [Compound 35] are 100 to 500 nM and 100 to 500 nM.
Regarding `Nc1nn2cccnc2c1-c1cc(NCc2ccsc2Br)ncn1` [Compound 36], the Ki on JAK3 was 10 to 100 nM; on JAK-2 enzyme, less than 10 nM.
In the same order, the values of `Nc1nn2cccnc2c1-c1cc(N2CCc3ccccc3C2)ncn1` [Compound 42] are 100 to 500 nM and 10 to 100 nM.
As for `Nc1nn2cccnc2c1-c1cc(NCc2cc(C(F)(F)F)ccc2F)ncn1` [Compound 45], the Ki on JAK3 is 100 to 500 nM; at JAK-2 enzyme, 10 to 100 nM.
In the same order, the values of `Nc1nn2cccnc2c1-c1cc(NCc2ccc(C(F)(F)F)cc2F)ncn1` [Compound 46] are 10 to 100 nM and less than 10 nM.
In the same order, the values of `Nc1nn2cccnc2c1-c1cc(N2CCCC2c2ccccc2)ncn1` (centres unmarked) [Compound 57] are 10 to 100 nM and less than 10 nM.
In the same order, the values of `CC[C@H](Nc1cc(-c2c(N)nn3cccnc23)ncn1)c1ccc(F)c(F)c1` [Compound 62] are 10 to 100 nM and less than 10 nM.
As to `CCC1c2ccccc2CCN1c1cc(-c2c(N)nn3cccnc23)ncn1` (centres unmarked) [Compound 64], the Ki at JAK3 is 100 to 500 nM; at JAK-2 enzyme, less than 10 nM.
Regarding `CCC(Oc1cc(-c2c(N)nn3cccnc23)ncn1)c1ccccc1` (centres unmarked) [Compound 65], the Ki is 10 to 100 nM on JAK3 and less than 10 nM at JAK-2 enzyme.
On the same counts, the results for `Nc1nn2cccnc2c1-c1cc(OC(c2ccccc2)C2CC2)ncn1` (centres unmarked) [Compound 66] are more than 5000 nM and 500 to 5000 nM.
In the same order, the values of `C[C@@H](Oc1cc(-c2c(N)nn3cccnc23)ncn1)c1ccccc1` [Compound 67] are 100 to 500 nM and 10 to 100 nM.
On the same counts, the results for `C[C@H](Oc1cc(-c2c(N)nn3cccnc23)ncn1)c1ccccc1` [Compound 68] are 10 to 100 nM and less than 10 nM.
Regarding `Nc1nn2cccnc2c1-c1cc(O[C@H](c2ccccc2)C(F)(F)F)ncn1` [Compound 69], the Ki on JAK3 was 100 to 500 nM; at JAK-2 enzyme, 10 to 100 nM.
As for `Nc1nn2cccnc2c1-c1cc(O[C@@H](c2ccccc2)C(F)(F)F)ncn1` [Compound 70], the results for the Ki on JAK3 and at JAK-2 enzyme were 500 to 5000 nM and 100 to 500 nM, respectively.
On the same counts, the results for `CC(Oc1cc(-c2c(N)nn3cccnc23)ncn1)c1ccc(F)cc1` (centres unmarked) [Compound 71] are 10 to 100 nM and less than 10 nM.
On the same counts, the results for `Nc1nn2cccnc2c1-c1cc(OCc2ccc(C(F)(F)F)cc2)ncn1` [Compound 72] are more than 5000 nM and 100 to 500 nM.
In the same order, the values of `Nc1nn2cccnc2c1-c1cc(N[C@H]2CCCc3ccccc32)ncn1` [Compound 76] are 100 to 500 nM and 10 to 100 nM.
For the compound `Nc1nn2cccnc2c1-c1cc(N[C@@H]2CCCc3ccccc32)ncn1` [Compound 79], the Ki on JAK3 lay within 100 to 500 nM; at JAK-2 enzyme, 10 to 100 nM.
On the same counts, the results for `C[C@H](Nc1cc(-c2c(N)nn3cccnc23)ncn1)c1ccc(F)cc1Cl` [Compound 80] are 10 to 100 nM and less than 10 nM.
On to `C[C@H](Nc1cc(-c2c(N)nn3cccnc23)ncn1)c1ccc(Cl)cc1F` [Compound 81], for which the Ki on JAK3 is 10 to 100 nM; at JAK-2 enzyme, less than 10 nM.
On the same counts, the results for `CC[C@H](Nc1cc(-c2c(N)nn3cccnc23)ncn1)c1ccc(F)cc1Cl` [Compound 82] are 10 to 100 nM and less than 10 nM.
On the same counts, the results for `CC[C@H](Nc1cc(-c2c(N)nn3cccnc23)ncn1)c1ccc(Cl)cc1F` [Compound 83] are 100 to 500 nM and less than 10 nM.
In the same order, the values of `CC[C@@H](Nc1cc(-c2c(N)nn3cccnc23)ncn1)c1ccc(F)cc1F` [Compound 88] are 10 to 100 nM and less than 10 nM.
For the compound `Nc1nn2cccnc2c1-c1cc(NC2(c3ccc(F)cc3)CC2)ncn1` [Compound 90], the Ki on JAK3 is 10 to 100 nM; at JAK-2 enzyme, less than 10 nM.
In the same order, the values of `C[C@H](Nc1cc(-c2c(N)nn3cccnc23)nc(C2CC2)n1)c1ccc(F)cc1` [Compound 91] are 10 to 100 nM and less than 10 nM.
On the same counts, the results for `CSc1nc(N[C@@H](C)c2ccc(F)cc2)cc(-c2c(N)nn3cccnc23)n1` [Compound 92] are 10 to 100 nM and less than 10 nM.
In the same order, the values of `CC[C@H](Nc1cc(-c2c(N)nn3ccc(C)nc23)ncn1)c1ccc(F)c(F)c1` [Compound 94] are 10 to 100 nM and less than 10 nM.
In the case of `Cc1ccn2nc(N)c(-c3cc(N[C@@H](C)c4ccc(F)cc4)ncn3)c2n1` [Compound 95], the Ki is 10 to 100 nM at JAK3 and less than 10 nM at JAK-2 enzyme.
On the same counts, the results for `C[C@H](Nc1cc(-c2c(N)nn3cccnc23)nc(N2CCOCC2)n1)c1ccc(F)cc1` [Compound 96] are 10 to 100 nM and less than 10 nM.
With `CCC[C@@H](Nc1cc(-c2c(N)nn3cccnc23)ncn1)c1ccc(F)c(F)c1` [Compound 97], the Ki on JAK3 was 100 to 500 nM; at JAK-2 enzyme, 10 to 100 nM.
On the same counts, the results for `CCC[C@H](Nc1cc(-c2c(N)nn3cccnc23)ncn1)c1ccc(F)c(F)c1` [Compound 98] are 10 to 100 nM and less than 10 nM.
On the same counts, the results for `CCN(CC)CCOc1nc(N[C@@H](C)c2ccc(F)cc2)cc(-c2c(N)nn3cccnc23)n1` [Compound 99] are 10 to 100 nM and less than 10 nM.
As to `C[C@H](Nc1cc(-c2c(N)nn3cccnc23)nc(S(C)(=O)=O)n1)c1ccc(F)cc1` [Compound 100], the Ki at JAK3 and at JAK-2 enzyme was less than 10 nM in each case.
Regarding `Nc1nn2cccnc2c1-c1cc(N[C@@H](CCO)c2ccccc2)nc(N2CCOCC2)n1` [Compound 102], the Ki at JAK3 is 100 to 500 nM; at JAK-2 enzyme it was 10 to 100 nM.
On the same counts, the results for `CCC[C@H](Nc1cc(-c2c(N)nn3cccnc23)nc(N2CCOCC2)n1)c1ccc(F)cc1` [Compound 103] are 100 to 500 nM and 10 to 100 nM.
On the same counts, the results for `CC(C)[C@@H](Nc1cc(-c2c(N)nn3cccnc23)nc(N2CCOCC2)n1)c1ccc(F)cc1F` [Compound 104] are 500 to 5000 nM and 100 to 500 nM.
In the same order, the values of `C[C@H](Nc1cc(-c2c(N)nn3cc(F)cnc23)ncn1)c1ccc(F)cc1F` [Compound 105] are 10 to 100 nM and less than 10 nM.
`C[C@H](Nc1cc(-c2c(N)nn3cccnc23)nc(N2CCOCC2)n1)c1ccc(F)cc1F` [Compound 106]: the Ki was 10 to 100 nM at JAK3 and less than 10 nM on JAK-2 enzyme.
Take `CCC[C@H](Nc1cc(-c2c(N)nn3cccnc23)nc(N2CCOCC2)n1)c1ccc(F)cc1F` [Compound 107]: the figures for the Ki on JAK3 and at JAK-2 enzyme were 100 to 500 nM and 10 to 100 nM, respectively.

Source of the values: patent US8937064B2, “Pyrazolo[1,5-a]pyrimidines useful as JAK2 inhibitors” (Vertex Pharmaceuticals Incorporated, priority 2007, dated 2015).
